Assay results: the NIST ThermoML archive (doi:10.1016/j.jct.2019.02.011)

Assay: xn = mol fraction of the nth substance listed
Details: Liquid, Vibrating tube method

COC(=O)OC [dimethyl carbonate] + CO
mass density [kg/m3]
Details | 100 kPa | 5000 kPa | 10000 kPa | 15000 kPa | 20000 kPa | 25000 kPa | 30000 kPa | 35000 kPa | 40000 kPa
293.15 K, x1 = 0.0253 | – | – | – | 819.01 | 822.93 | 826.85 | 830.45 | 833.84 | 837.02
293.15 K, x1 = 0.0503 | – | – | – | 832.64 | 836.57 | 840.49 | 844.1 | 847.49 | 850.69
293.15 K, x1 = 0.0745 | – | – | – | 845.15 | 849.09 | 853.02 | 856.63 | 860.04 | 863.25
293.15 K, x1 = 0.101 | – | – | – | 858.22 | 862.17 | 866.1 | 869.72 | 873.13 | 876.36
293.15 K, x1 = 0.1502 | – | – | – | 880.67 | 884.64 | 888.56 | 892.2 | 895.68 | 898.94
293.15 K, x1 = 0.2059 | – | – | – | 903.9 | 907.88 | 911.86 | 915.51 | 919 | 922.29
293.15 K, x1 = 0.25 | – | – | 916.63 | 920.72 | 924.71 | 928.69 | 932.36 | 935.81 | 939.11
293.15 K, x1 = 0.3004 | – | – | 934.21 | 938.3 | 942.31 | 946.29 | 949.97 | 953.48 | 956.8
293.15 K, x1 = 0.3426 | – | – | 947.86 | 951.96 | 955.98 | 959.96 | 963.65 | 967.16 | 970.51
293.15 K, x1 = 0.3984 | – | – | 964.54 | 968.64 | 972.68 | 976.66 | 980.36 | 983.88 | 987.25
293.15 K, x1 = 0.4514 | – | – | 979.07 | 983.17 | 987.22 | 991.16 | 994.86 | 998.4 | 1001.78
293.15 K, x1 = 0.5054 | – | – | 992.67 | 996.78 | 1000.83 | 1004.77 | 1008.44 | 1011.98 | 1015.38
293.15 K, x1 = 0.5509 | – | – | 1003.27 | 1007.38 | 1011.44 | 1015.38 | 1019.05 | 1022.6 | 1026.01
293.15 K, x1 = 0.6002 | – | – | 1013.92 | 1018.04 | 1022.11 | 1026.05 | 1029.73 | 1033.28 | 1036.7
293.15 K, x1 = 0.6469 | – | – | 1023.3 | 1027.41 | 1031.49 | 1035.43 | 1039.12 | 1042.68 | 1046.11
293.15 K, x1 = 0.6993 | – | – | 1033.07 | 1037.19 | 1041.28 | 1045.22 | 1048.91 | 1052.48 | 1055.92
293.15 K, x1 = 0.7496 | – | – | 1041.86 | 1045.98 | 1050.08 | 1054.02 | 1057.72 | 1061.24 | 1064.69
293.15 K, x1 = 0.799 | – | – | 1050.01 | 1054.09 | 1058.13 | 1062.08 | 1065.78 | 1069.31 | 1072.77
293.15 K, x1 = 0.837 | – | – | 1055.93 | 1060.01 | 1064.06 | 1068.01 | 1071.71 | 1075.29 | 1078.71
293.15 K, x1 = 0.9093 | – | – | 1066.58 | 1070.66 | 1074.72 | 1078.67 | 1082.38 | 1085.91 | 1089.35
293.15 K, x1 = 0.9239 | – | – | 1068.62 | 1072.7 | 1076.76 | 1080.71 | 1084.42 | 1087.96 | 1091.39
293.15 K, x1 = 0.9575 | – | – | 1073.25 | 1077.33 | 1081.4 | 1085.34 | 1089.06 | 1092.6 | 1096.04
293.15 K, x1 = 0.9861 | – | – | 1077.09 | 1081.17 | 1085.23 | 1089.18 | 1092.9 | 1096.44 | 1099.94
293.15 K, x1 = 1 | – | – | 1078.93 | 1083.01 | 1087.08 | 1091.03 | 1094.75 | 1098.34 | 1101.84
298.15 K, x1 = 0.0253 | 801.12 | 805.88 | 810.17 | 814.5 | 818.56 | – | – | – | –
298.15 K, x1 = 0.0503 | 814.67 | 819.42 | 823.72 | 828.05 | 832.13 | – | – | – | –
298.15 K, x1 = 0.0745 | 827.15 | 831.91 | 836.21 | 840.55 | 844.63 | – | – | – | –
298.15 K, x1 = 0.101 | 840.09 | 844.85 | 849.21 | 853.54 | 857.59 | – | – | – | –
298.15 K, x1 = 0.1502 | 862.34 | 867.1 | 871.47 | 875.8 | 879.93 | – | – | – | –
298.15 K, x1 = 0.2059 | 885.36 | 890.12 | 894.5 | 898.84 | 902.99 | – | – | – | –
298.15 K, x1 = 0.25 | 902 | 906.75 | 911.19 | 915.53 | 919.64 | – | – | – | –
298.15 K, x1 = 0.3004 | 919.49 | 924.24 | 928.68 | 933.03 | 937.16 | – | – | – | –
298.15 K, x1 = 0.3426 | 933.01 | 937.77 | 942.22 | 946.56 | 950.71 | – | – | – | –
298.15 K, x1 = 0.3984 | 949.56 | 954.26 | 958.77 | 963.12 | 967.28 | – | – | – | –
298.15 K, x1 = 0.4514 | 964.01 | 968.71 | 973.22 | 977.52 | 981.7 | – | – | – | –
298.15 K, x1 = 0.5054 | 977.58 | 982.28 | 986.75 | 991.05 | 995.2 | – | – | – | –
298.15 K, x1 = 0.5509 | 988.15 | 992.8 | 997.28 | 1001.58 | – | – | – | – | –
298.15 K, x1 = 0.6002 | 998.73 | 1003.39 | 1007.87 | 1012.12 | – | – | – | – | –
298.15 K, x1 = 0.6469 | 1008.04 | 1012.69 | 1017.17 | 1021.43 | – | – | – | – | –
298.15 K, x1 = 0.6993 | 1017.79 | 1022.44 | 1026.93 | 1031.19 | – | – | – | – | –
298.15 K, x1 = 0.7496 | 1026.56 | 1031.16 | 1035.66 | 1039.91 | – | – | – | – | –
298.15 K, x1 = 0.799 | 1034.65 | 1039.25 | 1043.74 | 1047.95 | – | – | – | – | –
298.15 K, x1 = 0.837 | 1040.55 | 1045.15 | 1049.65 | 1053.86 | – | – | – | – | –
298.15 K, x1 = 0.9093 | 1051.17 | 1055.73 | 1060.23 | 1064.44 | – | – | – | – | –
298.15 K, x1 = 0.9239 | 1053.21 | 1057.76 | 1062.27 | 1066.48 | – | – | – | – | –
298.15 K, x1 = 0.9575 | 1057.78 | 1062.33 | 1066.84 | 1071.05 | – | – | – | – | –
298.15 K, x1 = 0.9861 | 1061.61 | 1066.16 | 1070.67 | 1074.88 | – | – | – | – | –
298.15 K, x1 = 1 | 1063.45 | 1068 | 1072.51 | 1076.72 | – | – | – | – | –
